# Laboratory results as given in patent US9144239B2, “Macrocyclic picolinamides as fungicides” (DOW AGROSCIENCES LLC, priority 2012, dated 2015).
# Read-outs that look alike come from different tables or passages of the source.
# Key:
# Format in all cases: in vivo
# [1] = tested on: Mycosphaerella graminicola; anamorph: Septoria tritici; assay: Fungicidal activity: leaf blotch of wheat (SEPTTR), wheat seedlings; settings: Zymoseptoria tritici, 100 ppm, wheat
# Summary of the method: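 Compounds in acetone were diluted with nine volumes of water containing 110 ppm Triton X-100 and sprayed to run-off on Yuma wheat seedlings at first-leaf stage. Septoria tritici spores were inoculated before or after treatment, followed by dew chambers at 100% RH and 20 °C, then greenhouse at 20 °C. Severity (0–100%) was scored once untreated plants were fully diseased; control was calculated relative to untreated plants.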
# [2] = tested on: Cercospora beticola; assay: Fungicidal activity: leaf spot of sugar beets (CERCBE); settings: 24 h, 1 Day Protectant, sugar beet, read-out: Disease Control CERCBE 1DP
# Experimental: Technical grades of materials were dissolved in acetone, which were then mixed with nine volumes of water containing 110 ppm Triton X-100. The fungicide solutions were applied onto wheat seedlings using an automated booth sprayer to run-off. All sprayed plants were allowed to air dry prior to further handling. Wheat plants (variety Yuma) were grown from seed in a greenhouse in 50% mineral soil/50% soil-less Metro mix until the first leaf was fully emerged, with 7-10 seedlings per pot. These plants were inoculated with an aqueous spore suspension of Septoria tritici either prior to or after fungicide treatments. After inoculation the plants were kept in 100% relative humidity (one day in a dark dew chamber followed by two to three days in a lighted dew chamber at 20° C.) to permit spores to germinate and infect the leaf. The plants were then transferred to a greenhouse set at 20° C. for disease to develop. When disease symptoms were fully expressed on the 1st leaves of untreated plants, infection levels were assessed on a scale of 0 to 100 percent disease severity. Percent disease control was calculated using the ratio of disease severity on treated plants relative to untreated plants. Evaluation of Fungicidal Activity: Leaf Spot of Sugar Beets (Cercospora beticola; Bayer Code CERCBE) Sugar beet plants (variety HH88) were grown in soil-less Metro mix and trimmed regularly to maintain a uniform plant size prior to test. Plants were inoculated with a spore suspension 24 hr after fungicide treatments. Inoculated plants were kept in a dew chamber at 22° C. for 48 hr then incubated in a greenhouse set at 24° C. under a clear plastic hood with bottom ventilation until disease symptoms were fully expressed. Fungicide formulation, application and disease assessment on the sprayed leaves followed the procedures as described in the Example A.
# [3] = tested on: Glomerella lagenarium; anamorph: Colletotrichum lagenarium; assay: Fungicidal activity: cucumber anthracnose (COLLLA); settings: Colletotrichum orbiculare, 24 h, 1 Day Protectant, read-out: Disease Control COLLLA 1DP
# Experimental: Technical grades of materials were dissolved in acetone, which were then mixed with nine volumes of water containing 110 ppm Triton X-100. The fungicide solutions were applied onto wheat seedlings using an automated booth sprayer to run-off. All sprayed plants were allowed to air dry prior to further handling. Wheat plants (variety Yuma) were grown from seed in a greenhouse in 50% mineral soil/50% soil-less Metro mix until the first leaf was fully emerged, with 7-10 seedlings per pot. These plants were inoculated with an aqueous spore suspension of Septoria tritici either prior to or after fungicide treatments. After inoculation the plants were kept in 100% relative humidity (one day in a dark dew chamber followed by two to three days in a lighted dew chamber at 20° C.) to permit spores to germinate and infect the leaf. The plants were then transferred to a greenhouse set at 20° C. for disease to develop. When disease symptoms were fully expressed on the 1st leaves of untreated plants, infection levels were assessed on a scale of 0 to 100 percent disease severity. Percent disease control was calculated using the ratio of disease severity on treated plants relative to untreated plants. Evaluation of Fungicidal Activity: Cucumber Anthracnose (Glomerella lagenarium; Anamorph: Colletotrichum lagenarium; Bayer Code COLLLA) Cucumber seedlings (variety Bush Pickle) were propagated in soil-less Metro mix, with each pot having one plant, and used in the test when 12 to 14 days old. Test plants were inoculated with an aqueous spore suspension of Colletotrichum lagenarium 24 hr after fungicide treatments. After inoculation the plants were kept in a dew room at 22° C. with 100% relative humidity for 48 hr to permit spores to germinate and infect the leaf. The plants were then transferred to a growth room set at 22° C. for disease to develop. Fungicide formulation, application and disease assessment on the sprayed leaves followed the procedures as described in the Example A.
# [4] = tested on: Blumeria graminis f.sp. tritici; synonym: Erysiphe graminis f.sp. tritici; assay: Fungicidal activity: wheat powdery mildew (ERYSGT); settings: 24 h, 1 Day Protectant, read-out: Disease Control ERYSGT 1 DP
# Experimental: Technical grades of materials were dissolved in acetone, which were then mixed with nine volumes of water containing 110 ppm Triton X-100. The fungicide solutions were applied onto wheat seedlings using an automated booth sprayer to run-off. All sprayed plants were allowed to air dry prior to further handling. Wheat plants (variety Yuma) were grown from seed in a greenhouse in 50% mineral soil/50% soil-less Metro mix until the first leaf was fully emerged, with 7-10 seedlings per pot. These plants were inoculated with an aqueous spore suspension of Septoria tritici either prior to or after fungicide treatments. After inoculation the plants were kept in 100% relative humidity (one day in a dark dew chamber followed by two to three days in a lighted dew chamber at 20° C.) to permit spores to germinate and infect the leaf. The plants were then transferred to a greenhouse set at 20° C. for disease to develop. When disease symptoms were fully expressed on the 1st leaves of untreated plants, infection levels were assessed on a scale of 0 to 100 percent disease severity. Percent disease control was calculated using the ratio of disease severity on treated plants relative to untreated plants. Evaluation of Fungicidal Activity: Wheat Powdery Mildew (Blumeria graminis f.sp. tritici; Synonym: Erysiphe graminis f.sp. tritici; Bayer Code […]) Wheat plants (variety Yuma) were grown from seed in a greenhouse in 50% mineral soil/50% soil-less Metro mix until the first leaf was fully emerged, with 7-10 seedlings per pot. These plants were inoculated by dusting with infected stock plants 24 hr after fungicide treatments. After inoculation the plants were kept in a greenhouse set at 20° C. for disease to develop. Fungicide formulation, application and disease assessment on the sprayed leaves followed the procedures as described in the Example A.
# [5] = 24 h, 1 Day Protectant, read-out: Disease Control SEPTTR 1DP
# [6] = 72 h, 3 Day Curative, read-out: Disease Control SEPTTR 3DC
structure (smiles),measurement,setting,value
CCCCO[C@H]1COC[C@H](NC(=O)c2nccc(OC)c2OCOC(C)=O)C(=O)O[C@@H](C)[C@@H]1OCCOC [Compound 54],pest or weed control at 100 ppm,[1]; [5],0 to 80%
same,pest or weed control at 100 ppm,[1]; [6],0 to 80%
same,pest or weed control at 100 ppm,[2],0 to 80%
same,pest or weed control at 100 ppm,[3],80 to 100%
same,pest or weed control at 100 ppm,[4],0 to 80%
CCCO[C@H]1COC[C@H](NC(=O)c2nccc(OC)c2OCOC(C)=O)C(=O)O[C@@H](C)[C@@H]1Oc1ccccc1 [Compound 221],pest or weed control at 100 ppm,[1]; [5],80 to 100%
same,pest or weed control at 100 ppm,[1]; [6],80 to 100%
same,pest or weed control at 100 ppm,[2],80 to 100%
same,pest or weed control at 100 ppm,[3],80 to 100%
"COc1ccnc(C(=O)N[C@H]2COC[C@H](Oc3ccc(F)cc3)[C@@H](Oc3ccc(F)cc3)[C@H](C)OC2=O)c1OC(C)=O [Compound 229, 2-(((3S,7S,8S,9S)-7,8-bis(4-fluorophenoxy)-9-methyl-2-oxo-1,5-dioxonan-3-yl)carbamoyl)-4-methoxypyridin-3-yl acetate]",pest or weed control at 100 ppm,[2],80 to 100%
same,pest or weed control at 100 ppm,[3],80 to 100%
CCC(C)(C)O[C@H]1COC[C@H](NC(=O)c2nccc(OC)c2OCOC(C)=O)C(=O)O[C@@H](C)[C@@H]1OCC(C)C [Compound 78],pest or weed control at 100 ppm,[1]; [5],80 to 100%
same,pest or weed control at 100 ppm,[1]; [6],80 to 100%
same,pest or weed control at 100 ppm,[2],0 to 80%
same,pest or weed control at 100 ppm,[3],80 to 100%
same,pest or weed control at 100 ppm,[4],80 to 100%
COc1ccnc(C(=O)N[C@H]2COC[C@H](OC)[C@@H](OC)[C@H](C)OC2=O)c1OCOC(C)=O [Compound 65],pest or weed control at 100 ppm,[1]; [6],0 to 80%
same,pest or weed control at 100 ppm,[2],0 to 80%
same,pest or weed control at 100 ppm,[3],0 to 80%
COc1ccnc(C(=O)N[C@H]2COC[C@H](Oc3ccccc3)[C@@H](Oc3ccccc3)[C@H](C)OC2=O)c1OCOC(C)=O [Compound 84],pest or weed control at 100 ppm,[1]; [5],80 to 100%
same,pest or weed control at 100 ppm,[1]; [6],80 to 100%
same,pest or weed control at 100 ppm,[2],80 to 100%
same,pest or weed control at 100 ppm,[3],80 to 100%
same,pest or weed control at 100 ppm,[4],0 to 80%
CCCO[C@H]1[C@H](C)OC(=O)[C@@H](NC(=O)c2nccc(OC)c2OCOC(C)=O)COC[C@@H]1Oc1ccccc1 [Compound 222],pest or weed control at 100 ppm,[1]; [5],80 to 100%
same,pest or weed control at 100 ppm,[1]; [6],80 to 100%
same,pest or weed control at 100 ppm,[2],80 to 100%
same,pest or weed control at 100 ppm,[3],80 to 100%
"COc1ccnc(C(=O)N[C@H]2COC[C@H](OCC(C)C)[C@@H](OCC(C)C)[C@H](C)OC2=O)c1OCOC(C)=O [Compound 3, (2-((3S,7S,8S,9S)-7,8-diisobutoxy-9-methyl-2-oxo-1,5-dioxonan-3-ylcarbamoyl)-4-methoxypyridin-3-yloxy)methyl]",pest or weed control at 100 ppm,[1]; [5],80 to 100%
same,pest or weed control at 100 ppm,[1]; [6],80 to 100%
same,pest or weed control at 100 ppm,[2],80 to 100%
same,pest or weed control at 100 ppm,[3],80 to 100%
same,pest or weed control at 100 ppm,[4],80 to 100%
COc1ccnc(C(=O)N[C@H]2COC[C@H](OCC(C)C)[C@@H](OC3CCCCC3)[C@H](C)OC2=O)c1OCOC(C)=O [Compound 77],pest or weed control at 100 ppm,[1]; [5],80 to 100%
same,pest or weed control at 100 ppm,[1]; [6],80 to 100%
same,pest or weed control at 100 ppm,[2],80 to 100%
same,pest or weed control at 100 ppm,[3],80 to 100%
same,pest or weed control at 100 ppm,[4],0 to 80%
COc1ccnc(C(=O)N[C@H]2COC[C@H](Oc3ccccc3)[C@@H](OCC(C)C)[C@H](C)OC2=O)c1OCOC(C)=O [Compound 86],pest or weed control at 100 ppm,[1]; [5],80 to 100%
same,pest or weed control at 100 ppm,[1]; [6],80 to 100%
same,pest or weed control at 100 ppm,[2],80 to 100%
same,pest or weed control at 100 ppm,[3],80 to 100%
same,pest or weed control at 100 ppm,[4],80 to 100%
COc1ccnc(C(=O)NC2COC[C@H](OCc3ccccc3)[C@@H](OCc3ccccc3)[C@H](C)OC2=O)c1OCOC(C)=O (stereo partly drawn) [Compound 12],pest or weed control at 100 ppm,[1]; [5],80 to 100%
same,pest or weed control at 100 ppm,[1]; [6],80 to 100%
same,pest or weed control at 100 ppm,[2],80 to 100%
same,pest or weed control at 100 ppm,[3],80 to 100%
same,pest or weed control at 100 ppm,[4],0 to 80%
COc1ccnc(C(=O)N[C@H]2COC[C@H](OCCCC(F)(F)F)[C@@H](OCCCC(F)(F)F)[C@H](C)OC2=O)c1OCOC(C)=O [Compound 68],pest or weed control at 100 ppm,[1]; [5],80 to 100%
same,pest or weed control at 100 ppm,[1]; [6],80 to 100%
same,pest or weed control at 100 ppm,[2],80 to 100%
same,pest or weed control at 100 ppm,[3],80 to 100%
same,pest or weed control at 100 ppm,[4],0 to 80%
COc1ccnc(C(=O)N[C@H]2COC[C@H](OC(=O)C(C)C)[C@@H](OC(=O)C(C)C)[C@H](C)OC2=O)c1OCOC(C)=O [Compound 57],pest or weed control at 100 ppm,[1]; [5],80 to 100%
same,pest or weed control at 100 ppm,[1]; [6],80 to 100%
same,pest or weed control at 100 ppm,[2],80 to 100%
same,pest or weed control at 100 ppm,[3],80 to 100%
same,pest or weed control at 100 ppm,[4],0 to 80%
CCCCO[C@H]1COC[C@H](NC(=O)c2nccc(OC)c2OCOC(C)=O)C(=O)O[C@@H](C)[C@@H]1OCC(F)F [Compound 55],pest or weed control at 100 ppm,[1]; [5],80 to 100%
same,pest or weed control at 100 ppm,[1]; [6],80 to 100%
same,pest or weed control at 100 ppm,[2],80 to 100%
same,pest or weed control at 100 ppm,[3],80 to 100%
same,pest or weed control at 100 ppm,[4],0 to 80%
COc1ccnc(C(=O)N[C@H]2COC[C@H](OCCCc3ccccc3)[C@@H](OCCCc3ccccc3)[C@H](C)OC2=O)c1OCOC(C)=O [Compound 60],pest or weed control at 100 ppm,[1]; [5],80 to 100%
same,pest or weed control at 100 ppm,[1]; [6],0 to 80%
same,pest or weed control at 100 ppm,[2],80 to 100%
same,pest or weed control at 100 ppm,[3],80 to 100%
same,pest or weed control at 100 ppm,[4],0 to 80%
COc1ccnc(C(=O)N[C@H]2COC[C@H](OCC(C)C)[C@@H](OCC(C)C)[C@H](C)OC2=O)c1OCOC(=O)C(C)C [Compound 2],pest or weed control at 100 ppm,[1]; [5],80 to 100%
same,pest or weed control at 100 ppm,[1]; [6],80 to 100%
same,pest or weed control at 100 ppm,[2],0 to 80%
COc1ccnc(C(=O)N[C@H]2COC[C@H](Oc3ccc(F)cc3)[C@@H](Oc3ccc(F)cc3)[C@H](C)OC2=O)c1OCOC(C)=O [Compound 231],pest or weed control at 100 ppm,[2],0 to 80%
same,pest or weed control at 100 ppm,[3],80 to 100%
COc1ccnc(C(=O)N[C@H]2COC[C@H](OCC(C)C)[C@@H](Oc3ccccc3)[C@H](C)OC2=O)c1OCOC(C)=O [Compound 85],pest or weed control at 100 ppm,[1]; [5],80 to 100%
same,pest or weed control at 100 ppm,[1]; [6],80 to 100%
same,pest or weed control at 100 ppm,[2],80 to 100%
same,pest or weed control at 100 ppm,[3],80 to 100%
same,pest or weed control at 100 ppm,[4],0 to 80%
